In patent publication US20110245288A1 (priority 2010, published 2011):

What was measured:
[1] = human
[2] = human; remark: listed apart in the source

SMILES	Cumulative permeation [1] [nmol]	Flux [1] [nmol/cm^2/h]	Lag time [1] [h]	Skin Disposition [1] [µmol/g]	Plasma hydrolysis (k) [2] [h⁻¹]	flux enhancement [1]	fold increase in cumulative permeation as compared to BUP [1] [fold]
CO[C@]12CC[C@@]3(C[C@@H]1[C@](C)(O)C(C)(C)C)[C@H]1Cc4ccc(O)c5c4[C@@]3(CCN1CC1CC1)[C@H]2O5 [BUP, buprenorphine, reference compound]	6.32 ± 2.16	0.44 ± 0.14	9.2 ± 2.0	0.62 ± 0.34			
CCOCCOCCOC(=O)Oc1ccc2c3c1O[C@H]1[C@@]4(OC)CC[C@@]5(C[C@@H]4[C@](C)(O)C(C)(C)C)[C@@H](C2)N(CC2CC2)CC[C@]315 [Formula I, Buprenorphine 3,6-dioxaoctyl carbonate]	17.5 ± 4.0	1.24 ± 0.23	7.7 ± 1.7	1.0 ± 0.4	-0.113	*Formula I (3) (key: *Indicates a flux enhancement greater than 2.)	≥ 2.75
CCOCCOCCOCCOCCOC(=O)Oc1ccc2c3c1O[C@H]1[C@@]4(OC)CC[C@@]5(C[C@@H]4[C@](C)(O)C(C)(C)C)[C@@H](C2)N(CC2CC2)CC[C@]315 [Formula II, Buprenorphine 3,6,9,12-tetraoxatetradecanyl carbonate]	4.5 ± 1.9	0.31 ± 0.26	7.4 ± 4.7	4.5 ± 1.9	-1.12		
CCOCCOCCOCCOC(=O)Oc1ccc2c3c1O[C@H]1[C@@]4(OC)CC[C@@]5(C[C@@H]4[C@](C)(O)C(C)(C)C)[C@@H](C2)N(CC2CC2)CC[C@]315 [Formula III, Buprenorphine 3,6,9-trioxaundecyl carbonate]	23.9 ± 6.7	1.74 ± 0.45	8.7 ± 0.6	13.89 ± 12.21	-0.37	*FormuIa III (4) (key: *Indicates a flux enhancement greater than 2.)	≥ 2.75
